The values below come from US20090053278A1, “ANTI-MICROBIAL COMPOSITIONS AND DEVICES AND METHODS OF USING THE SAME” (priority 2006, published 2009).

Usually MIC stands for the lowest concentration found to suppress growth. Lower therefore signals inhibition by little substance.

In brackets after ≈: the same amount, converted by molar mass. Where a SMILES comes first, the peptide text is derived from it.

Experiment [1] relates to Staphylococcus aureus (University of Calgary clinical isolate, strain 2645) grown as a biofilm. The experiment can be described thus: MBEC of biofilm, MBEC device, 24 hour exposure. It is filed as cell-based. The settings on record: S. aureus biofilm, 10% MHB in PBS. An excerpt:
(§1) The procedure provided describes an assay for testing 2 organisms (S. epidermidis and S. aureus) grown as a biofilm against 2 antimicrobial agents (gentamicin and an eCAP peptide) using a 96 well microtitre plate. The procedure will allow one to compare the MIC and MBEC values for each organism against each antimicrobial agent and against each other.
(§2) Microorganisms used were Staphylococcus epidermididis (RP62A; “Christensen Strain”) and Staphylococcus aureus (University of Calgary clinical isolate, strain 2645).
(§3) One set of test panels as shown above was prepared for each organism to determine the MIC and MBEC after a 24 hour exposure to each test material. SC wells are sterility controls for each experiment. GC is the growth control for each row. The working solution of gentamicin was 3 μmol/ml and 1 μmol/ml for eCAP. No SEM samples were taken for analysis due to test material shortage.
(§4) A working solution of eCAP or Gentamicin (1 μMoles/mL and 3 μMoles/mL respectively) was made in 10% MHB in sterile PBS. 200 μl of 10% MHB was added to ‘column’ 12 to serve as sterility controls (SC) and growth controls (GC) for each organism. 100 μl of 10% MHB was added to ‘columns’ 2 to 11. 200 μl of the appropriate working solution was added to ‘column’ 1 of the microtitre plate. 100 μl of the appropriate working solution was added to ‘column’ 2 and ‘column’ 3 of the microtitre plate. Using the multichannel micropipette, the contents of ‘column’ 3 was mixed by pipetting up and down. After mixing, 100 μl was transferred from the wells in ‘column’ 3 to the corresponding wells in ‘column’ 4. This was repeated until reaching ‘column’ 1. Using a pipet, 100 μl from each well in ‘column’ 11 was ejected. 100 μl of growth media was then added to all wells except A1 to H1, A2 to H2, and A12 to H12.
Antimicrobial Challenge of Biofilm: Rinse plate(s) of saline (200 μL per well) were prepared. Planktonic cells from biofilm that had formed on the lid of the MBEC device were rinsed by dipping the lid into the saline for 1-2 minutes. The lid was transferred to the challenge plate and incubated at 37° C. for 24 hours on a gyrating platform set at approximately 150 rpm.
Recovery of Surviving Biofilm: Rinse plate(s) of 0.9% sterile saline (200 μL per well) were prepared in a sterile 96 well micro titre plate. Pegs were rinsed in 0.9% sterile saline for 1 to 2 minutes. […] The recovery plates were incubated at 37° C. for 24 hours and read using the plate ready to determine MBEC values.
(§5) Therefore, 10% MHB was used as a diluent instead of TSB. […] The MIC and MBEC values were determined as the dilution immediately before the concentration where growth was first observed, as depicted in Table 9 below.

In experiment [2] the test system is Staphylococcus epidermididis (RP62A; "Christensen Strain"). The experiment can be described thus: Planktonic MIC, MBEC device, 24 hour exposure. The format is cell-based, Staphylococcus epidermidis. The settings on record: S. epidermidis, 10% MHB in PBS.
Text: as §1, §2, §3
as §4, with “This was repeated until reaching ‘column’ 1. Using a pipet, 100 μl from each well in ‘column’ 11 was ejected. 100 μl of growth media was then added to all wells except A1 to H1, A2 to H2, and A12 to H12.” left out
Determination of Planktonic MIC: The challenge plate was incubated at 37° C. for 24 hours and read using a plate reader to determine MIC values. The MIC (minimum inhibitory concentration) was determined for compound eCAP/gentamicin for each organism shed from the biofilm during the challenge incubation. […]
as §5

The test system of a further experiment is Enterococcis faecalis. Put plainly: in-vitro assay of peptide-coated plastic endodontic obturators. Particulars: peptide immobilized on plastic obturators; data not shown. It is filed as cell-based. An excerpt: Medical standard plastic endodontic obturators were coated with an antimicrobial peptide. […] The obturators were coated with a tie layer. A parylene coating containing a reactive molecule specific for the N-terminus region of the peptide (“Photopolymer”) was then applied over the tie layer. The peptide WLBU-2 (SEQ ID NO. 179) was applied to the parylene coating and exposed to UV light to facilitate covalent bonding of the peptide with the parylene coating. Non-coated obturators were used as controls. All samples and controls were subjected to ethylene oxide sterilization. The coated samples were placed in 75% relative humidity overnight.

A short description of experiment [3]: antimicrobial activity retained after sterilization. An excerpt:
In a useful embodiment of the present invention, the antimicrobial peptides may retain antibacterial activity after a device coated with the antimicrobial peptide is sterilized.

Experiment [4] relates to Staphylococcus epidermididis (RP62A; "Christensen Strain") grown as a biofilm. Put plainly: MBEC of biofilm, MBEC device, 24 hour exposure. The settings on record: S. epidermidis biofilm, 10% MHB in PBS, listed as eCAP sterilized by ethylene oxide. The format is cell-based, Staphylococcus epidermidis.
Text: as §1, §2
One set of test panels as shown above was prepared for each organism to determine the MIC and MBEC after a 24 hour exposure to each test material. SC wells are sterility controls for each experiment. GC is the growth control for each row. The working solution of gentamicin was 3 μmol/ml and 1 μmol/ml for eCAP. No SEM samples were taken for analysis due to test material shortage. […]
Recovery of Surviving Biofilm: Rinse plate(s) of 0.9% sterile saline (200 μL per well) were prepared in a sterile 96 well micro titre plate. […] The recovery plates were incubated at 37° C. for 24 hours and read using the plate ready to determine MBEC values.
as §5

Setting [5] is: listed as eCAP sterilized by ethylene oxide.

As for `CC(C)[C@H](NC(=O)[C@H](Cc1c[nH]c2ccccc12)NC(=O)[C@H](CCCNC(=N)N)NC(=O)[C@H](CCCNC(=N)N)NC(=O)[C@@H](NC(=O)[C@@H](NC(=O)[C@H](CCCNC(=N)N)NC(=O)[C@@H](NC(=O)[C@@H](NC(=O)[C@H](CCCNC(=N)N)NC(=O)[C@H](CCCNC(=N)N)NC(=O)[C@H](Cc1c[nH]c2ccccc12)NC(=O)[C@@H](NC(=O)[C@H](CCCNC(=N)N)NC(=O)[C@H](CCCNC(=N)N)NC(=O)[C@@H](NC(=O)[C@H](CCCNC(=N)N)NC(=O)[C@H](CCCNC(=N)N)NC(=O)[C@@H](NC(=O)[C@H](Cc1c[nH]c2ccccc12)NC(=O)[C@H](CCCNC(=N)N)NC(=O)[C@@H](N)CCCNC(=N)N)C(C)C)C(C)C)C(C)C)C(C)C)C(C)C)C(C)C)C(C)C)C(=O)N[C@@H](CCCNC(=N)N)C(=O)N[C@@H](CCCNC(=N)N)C(=O)O` [High dose Irradiated eCAP] (H-RRWVRRVRRVWRRVVRVVRRWVRR-OH; N-terminus and C-terminus assumed), the MBEC result in experiment [1] (listed as eCAP sterilized by high dose irradiation) is given as “approximately 0.016 μmol/ml”.
Consider `CC(C)[C@H](NC(=O)[C@H](Cc1c[nH]c2ccccc12)NC(=O)[C@H](CCCNC(=N)N)NC(=O)[C@H](CCCNC(=N)N)NC(=O)[C@@H](NC(=O)[C@@H](NC(=O)[C@H](CCCNC(=N)N)NC(=O)[C@@H](NC(=O)[C@@H](NC(=O)[C@H](CCCNC(=N)N)NC(=O)[C@H](CCCNC(=N)N)NC(=O)[C@H](Cc1c[nH]c2ccccc12)NC(=O)[C@@H](NC(=O)[C@H](CCCNC(=N)N)NC(=O)[C@H](CCCNC(=N)N)NC(=O)[C@@H](NC(=O)[C@H](CCCNC(=N)N)NC(=O)[C@H](CCCNC(=N)N)NC(=O)[C@@H](NC(=O)[C@H](Cc1c[nH]c2ccccc12)NC(=O)[C@H](CCCNC(=N)N)NC(=O)[C@@H](N)CCCNC(=N)N)C(C)C)C(C)C)C(C)C)C(C)C)C(C)C)C(C)C)C(C)C)C(=O)N[C@@H](CCCNC(=N)N)C(=O)N[C@@H](CCCNC(=N)N)C(=O)O` [WLBU-2, RRWVRRVRRVWRRVVRVVRRWVRR] (H-RRWVRRVRRVWRRVVRVVRRWVRR-OH; N-terminus and C-terminus assumed), for which, in experiment [2] (listed as eCAP), the MIC was determined as 3.9 µM (≈ 13.3 µg/mL). Besides, the “efficacy against Enterococcis faecalis of immobilized peptide” value with Enterococcis faecalis was “efficacy against Enterococcis faecalis”. Moreover, the “effect of sterilization methods on antimicrobial activity” value in experiment [3] (high and low dose gamma radiated and ethylene oxide, MIC/MBEC against S. aureus and S. epidermidis) is “not detrimental to its antimicrobial activity”. Also, the “antimicrobial activity after ethylene oxide sterilization” value in experiment [3] (peptide coated on a substrate) is recorded as “retained antimicrobial activity”.
On to Gentamicin [reference compound], for which the MBEC in experiment [1] is 1.5 µmol/mL. The same molecule registered an MIC in experiment [2] of 1500 µM.
With `CC(C)[C@H](NC(=O)[C@H](Cc1c[nH]c2ccccc12)NC(=O)[C@H](CCCNC(=N)N)NC(=O)[C@H](CCCNC(=N)N)NC(=O)[C@@H](NC(=O)[C@@H](NC(=O)[C@H](CCCNC(=N)N)NC(=O)[C@@H](NC(=O)[C@@H](NC(=O)[C@H](CCCNC(=N)N)NC(=O)[C@H](CCCNC(=N)N)NC(=O)[C@H](Cc1c[nH]c2ccccc12)NC(=O)[C@@H](NC(=O)[C@H](CCCNC(=N)N)NC(=O)[C@H](CCCNC(=N)N)NC(=O)[C@@H](NC(=O)[C@H](CCCNC(=N)N)NC(=O)[C@H](CCCNC(=N)N)NC(=O)[C@@H](NC(=O)[C@H](Cc1c[nH]c2ccccc12)NC(=O)[C@H](CCCNC(=N)N)NC(=O)[C@@H](N)CCCNC(=N)N)C(C)C)C(C)C)C(C)C)C(C)C)C(C)C)C(C)C)C(C)C)C(=O)N[C@@H](CCCNC(=N)N)C(=O)N[C@@H](CCCNC(=N)N)C(=O)O` [Ethylene oxide eCAP] (H-RRWVRRVRRVWRRVVRVVRRWVRR-OH; N-terminus and C-terminus assumed), the MBEC result in experiment [1] (setting [5]) is “approximately 0.0039 μmol/ml”; in experiment [4], 0.0078 µmol/mL. The molecule further returned an MIC in experiment [2] (setting [5]) of 3.9 µM (≈ 13.3 µg/mL).
As for `CC(C)[C@H](NC(=O)[C@H](Cc1c[nH]c2ccccc12)NC(=O)[C@H](CCCNC(=N)N)NC(=O)[C@H](CCCNC(=N)N)NC(=O)[C@@H](NC(=O)[C@@H](NC(=O)[C@H](CCCNC(=N)N)NC(=O)[C@@H](NC(=O)[C@@H](NC(=O)[C@H](CCCNC(=N)N)NC(=O)[C@H](CCCNC(=N)N)NC(=O)[C@H](Cc1c[nH]c2ccccc12)NC(=O)[C@@H](NC(=O)[C@H](CCCNC(=N)N)NC(=O)[C@H](CCCNC(=N)N)NC(=O)[C@@H](NC(=O)[C@H](CCCNC(=N)N)NC(=O)[C@H](CCCNC(=N)N)NC(=O)[C@@H](NC(=O)[C@H](Cc1c[nH]c2ccccc12)NC(=O)[C@H](CCCNC(=N)N)NC(=O)[C@@H](N)CCCNC(=N)N)C(C)C)C(C)C)C(C)C)C(C)C)C(C)C)C(C)C)C(C)C)C(=O)N[C@@H](CCCNC(=N)N)C(=O)N[C@@H](CCCNC(=N)N)C(=O)O` [Low dose irradiated eCAP] (H-RRWVRRVRRVWRRVVRVVRRWVRR-OH; N-terminus and C-terminus assumed), the MBEC entry in experiment [1] (listed as eCAP sterilized by low dose irradiation) is recorded as “approximately 0.063 μmol/ml”.
